Assay results published in patent publication US20090321255A1, “Drug-meter: Multiwell membrane-based potentiometric sensor for high throughput tests of drugs” (priority 2008, published 2009).
Counter-ions that a name gives are not always drawn.

Assays:
[1] = Kinetics of transmembrane potential decrease due to drug transport through the membrane; assay type: physicochemical
Description: Kinetics of the process was registered with electrochemical station GPES. 5 mM Potassium Dihydrogen Phosphate solution in water was used as a buffer, filling the tray with the volume ˜30 ml. Known concentration of a drug (usually near 10^−5 M) could be added in the buffer as the reference. Membrane resistance after impregnation was several megaohms and usually decreases after modification of the membrane with drugs. Resistance is much lower when the membrane is broken. In this case the measurements can be conducted in other wells with the same test solution.
Using electrochemical station and computer it is possible to measure potential continuously in time, and for example, to study drug transport through the membrane. In this case it is possible to have different drugs or different types of membranes in different wells.
The steady state potential can decrease in time if one waits at least several minutes due to the slow drug transport through the membrane. After the experiments the membrane could be washed, dried, reimpregnated and after preequilibration used again.
At higher concentrations of the drug after the transmembrane potential reaches its maximum value, it slowly decreases with time due to the transport of the drug (FIG. 6). At pH 8 characteristic time was of the order ˜20 s and increased at more acidic pH to ˜100 s.

[2] = Transmembrane potential calibration of multiwell biomimetic membrane sensor in buffer; assay type: physicochemical; conditions: pH 8
Text: Multiwell plates used were commercial Millipore MultiScreen VM 0.05μ plates with nitrocellulose ultrafilters located at the base of each of the 96 wells of a plate. Though the number of the wells in the examples given in the disclosure is 96, as it is in the usual multiwell plates, it is not limited by this number and can be any from 2 and above.
All filters were impregnated by isopropyl myristate or some other lipid-like substances, like long chain fatty acids, their methyl and ethyl-esters, fats, etc. After impregnation the membranes should be translucent.
Each well requires as little as 200 μl of test solution. The small well's volume and the numerous wells (96) make the plates highly suitable as a part of the drug sensor, both for pharmaceutical testing in a buffer as well as for testing in biological fluids.
The tray cover can be is used as a base tray to put the reference buffer solution. Two Ag/AgCl electrodes with the salt bridges were used to measure transmembrane potential with common multimeter. It is possible to use one Ag/AgCl element as a measuring electrode and move it from one well to another. Another option is to have different measuring electrodes in different wells and separately to collect signals from each of them separately.
Kinetics of the process was registered with electrochemical station GPES. […]

albumin = albumin (Homo sapiens, UniProt P02768); test: Transmembrane potential calibration of the multiwell sensor in albumin solution; assay type: physicochemical
Description: In some cases drugs concentration was measured in albumin solutions with protein concentration 0.022 g/cm^3 in buffer or Fetal Bovine Serum was used with concentration of serum albumin in the range 0.0187 g/cm^3-0.022 g/cm^3.
The base plate was filled with the buffer of reference concentration 5×10^−6 M of drug, and the wells with albumin-drug solution, with constant concentration of albumin, but varying concentration of drug.
In this case the measuring Ag/AgCl electrode was inserted into the wells with albumin solution with decreasing fenfluramine concentrations, then increasing fenfluramine concentrations, i.e. forward and backward using the same wells. The base solution was buffer. The method allows measurements of fenfluramine from 5×10^−5 to 5×10^−2M.
If different concentrations of rimantadine in albumin solution were preliminary prepared, preequilibrated and then added into the wells (method 2), a gradient was 59.9 mV per 10 fold change in drug concentration, which is similar to that with a buffer solution.
Chlorpromazine test solutions were injected into the wells and the reference solution of 5×10^−6 M Chlorpromazine in the buffer was added into the base. […] This effect is similar to the lysis of biological membranes and is related to the surface active properties of chlorpromazine. It was observed also with several other psychotropic substances, including several antidepressants. Those of the drugs which induce lysis at elevated concentrations also have nonspecific liver toxicity.

[3] = Biomimetic membrane lysis (screen for nonspecific liver toxicity); conditions: elevated drug concentration (chlorpromazine near 0.05 M, after some time)
[4] = bovine, fetal bovine serum, plasma or biological fluid
[5] = pH 7.4 buffer, pH 7.4, aqueous buffer
[6] = method 1: drug added directly into albumin solutions in the wells

Sequence of albumin (P02768 25-609, species assumed): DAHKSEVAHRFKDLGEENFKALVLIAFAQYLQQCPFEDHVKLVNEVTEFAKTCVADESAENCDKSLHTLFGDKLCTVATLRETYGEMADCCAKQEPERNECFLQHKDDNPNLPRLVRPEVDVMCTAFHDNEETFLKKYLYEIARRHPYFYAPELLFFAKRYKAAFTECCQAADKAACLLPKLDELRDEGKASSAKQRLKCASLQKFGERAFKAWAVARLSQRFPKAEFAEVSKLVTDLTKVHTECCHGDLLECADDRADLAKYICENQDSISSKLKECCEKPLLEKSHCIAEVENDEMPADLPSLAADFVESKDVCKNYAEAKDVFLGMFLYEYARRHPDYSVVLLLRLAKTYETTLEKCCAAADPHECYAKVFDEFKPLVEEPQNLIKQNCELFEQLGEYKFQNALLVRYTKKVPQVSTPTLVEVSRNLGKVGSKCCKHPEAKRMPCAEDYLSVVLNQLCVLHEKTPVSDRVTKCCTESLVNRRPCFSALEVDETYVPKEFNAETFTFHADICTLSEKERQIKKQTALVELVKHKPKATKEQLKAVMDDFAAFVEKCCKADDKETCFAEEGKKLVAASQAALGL

Structure (SMILES) | solubility (Solubility; [4]) [mM] | solubility (Solubility; [5]) [mM] | characteristic time of potential decrease due to transport of the drug ([1]; more acidic pH) [s] | characteristic time of potential decrease due to transport of the drug ([1]; pH 8, higher drug concentrations (FIG. 6: 10^−3 M)) [s] | time taken to reach the maximum potential [2] | potentials in buffer versus albumin solutions (drug binding property of albumin) (albumin; pH2, reference 5×10^−6 M drug in buffer) | slope of calibration curve (albumin; [6]) | time for the potential to reach the steady state (albumin; [6]) | gradient of calibration curve (albumin; method 2: drug in albumin solution prepared, preequilibrated, then added into wells) | membrane lysis / loss of transmembrane potential [3]
CCNC(C)Cc1cccc(C(F)(F)F)c1.Cl (racemic) [Fenfluramine Hydrochloride, (+/−)-N-ethyl-α-methyl-m-(trifluoromethyl) phenethylamine HCl] | ~10 | ~50 | ~100 | ~20 | less then a minute | – | – | – | – | –
CN(C)CCCN1c2ccccc2Sc2ccc(Cl)cc21 [Chlorpromazine Hydrochloride, 2-chloro-10-[3-dimethylaminopropyl] phenothiazine] | – | – | – | – | – | higher with buffer than with albumin solutions | – | – | – | –
CC(N)C12CC3CC(CC(C3)C1)C2.Cl (stereo not drawn) [Rimantadine Hydrochloride, 1-(1-Adamantyl)ethylamine hydrochloride] | ~10 | ~50 | – | – | – | – | 19.3 mV per 10 fold change in Rimantadine concentration | at least an hr | 59.9 mV per 10 fold change in drug concentration | did not result in the membrane lysis
